Experimental data as given in publication PMC10914731, “Homo-BacPROTAC-induced degradation of ClpC1 as a strategy against drug-resistant mycobacteria” (Nature Communications, 2024).
≈ marks a conversion by molar mass, not a printed value. Where “and” joins values, the source holds several entries; their conditions need not be identical. Equal entries are not always repeated. Where two headings read alike, the source gives them in different places. Where a SMILES comes first, the peptide text is derived from it. [ ]: non-standard residue; d: D form. NMeLeu(5-OH,4R) = CN[C@@H](C[C@@H](C)CO)C(=O)O; Phe(βR-OMe) = CO[C@H](c1ccccc1)[C@H](N)C(=O)O; Trp(1-Me) = Cn1cc(C[C@H](N)C(=O)O)c2ccccc21; NMeL = CN[C@@H](CC(C)C)C(=O)O; Pra = C#CC[C@H](N)C(=O)O

Legend:
[1] = target: His6-tagged ClpC1-NTD substrate, M. smegmatis ClpC1P1P2 (UniProt A0R574+P9WPC9); test: biochemical; type: biochemical; conditions: for % Response: ClpC1-NTD/ClpP1P2 peak area normalized to DMSO, well replicates
Chain of His6-tagged ClpC1-NTD substrate, M. smegmatis ClpC1P1P2 (P9WPC9 1-156, looked up, natural form): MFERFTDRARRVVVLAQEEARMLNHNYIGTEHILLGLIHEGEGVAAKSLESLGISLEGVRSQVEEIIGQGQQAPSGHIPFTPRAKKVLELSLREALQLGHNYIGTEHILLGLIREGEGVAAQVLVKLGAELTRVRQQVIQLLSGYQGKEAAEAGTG
Chain of His6-tagged ClpC1-NTD substrate, M. smegmatis ClpC1P1P2 (A0R574 whole entry): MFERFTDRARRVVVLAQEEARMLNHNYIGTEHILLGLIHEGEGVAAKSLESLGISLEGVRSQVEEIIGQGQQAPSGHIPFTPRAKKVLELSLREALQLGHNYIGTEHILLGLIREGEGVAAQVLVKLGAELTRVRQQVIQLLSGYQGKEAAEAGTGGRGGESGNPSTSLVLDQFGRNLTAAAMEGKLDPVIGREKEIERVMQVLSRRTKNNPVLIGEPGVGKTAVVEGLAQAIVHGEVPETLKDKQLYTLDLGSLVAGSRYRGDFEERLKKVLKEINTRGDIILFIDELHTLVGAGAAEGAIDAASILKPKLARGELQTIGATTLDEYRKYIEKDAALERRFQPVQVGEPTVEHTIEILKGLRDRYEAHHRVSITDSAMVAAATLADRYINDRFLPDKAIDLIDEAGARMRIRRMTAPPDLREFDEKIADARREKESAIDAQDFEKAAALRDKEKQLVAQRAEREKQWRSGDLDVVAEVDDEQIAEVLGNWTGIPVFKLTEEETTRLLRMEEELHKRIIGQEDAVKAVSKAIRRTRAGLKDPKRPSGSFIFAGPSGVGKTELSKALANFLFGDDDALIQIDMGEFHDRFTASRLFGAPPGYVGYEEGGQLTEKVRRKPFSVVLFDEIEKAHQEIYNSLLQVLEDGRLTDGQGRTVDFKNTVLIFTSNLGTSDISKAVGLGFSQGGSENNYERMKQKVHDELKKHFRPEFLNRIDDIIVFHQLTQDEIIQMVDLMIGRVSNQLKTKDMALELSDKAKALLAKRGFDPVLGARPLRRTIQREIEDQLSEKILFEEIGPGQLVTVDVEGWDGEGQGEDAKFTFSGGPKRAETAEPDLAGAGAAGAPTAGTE

[2] = Microsomal stability, human; type: in vitro ADME; conditions: for Microsomal Stability Human: clearance in microsomes
Method in brief: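 Clearance, expressed as % liver blood flow (%Qh), derived by the well-stirred model from first-order half-lives. Depletion monitored by HPLC-MS/MS in acetonitrile-stopped samples over time; 37 °C, NADPH 1 mM, microsomes 0.5 mg/ml, compound 1 µmol/l, Tris-HCl pH 7.5 with MgCl2.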

in vivo = type: in vivo, BALB/cAnNCrl mice; conditions: BLOQ <1.00 nmol/L
Procedure: The in-life experimental procedures were conducted in strict compliance with German and European animal welfare legislation in an AAALAC-accredited facility. Male BALB/cAnNCrl mice (Charles River Laboratories Research Models and Services, 97633 Sulzfeld, Germany) were used. Animals were 9 weeks old at dosing with a body weight of 21.6–24.3 g. Animals were delivered free of pathogens according to FELASA recommendations with a health certificate provided by the breeder. Upon receipt, the state of health and sex was checked. Animals acclimatized for at least 5 days before the commencement of the in-life phase. During acclimation, animals were group-housed in individually ventilated cages, on birch wood granulate bedding with species-specific enrichment (nesting material, mouse igloo, gnawing wood). During experimental conduct, animals were housed in conventional cages with elevated grid floors. Grid floor was used to avoid contamination with test item material excreted via urine and feces and subsequent reuptake during fur grooming. No bedding and enrichment were provided except a cage divider, which can be used as a shelter. Animals always had unlimited access to food and water and received a pelleted, total pathogen-free maintenance diet and tap drinking water, sterilized by filter.
On the day before dosing, test item(s) were suspended in kleptose (20% in WFI) under continuous stirring (3.0 mg/ml). Following 2 min vortexing and 1 h stirring, the formulation was sonicated at 60 °C for 30 min and stirred at ambient temperature overnight. Before dosing, the formulation was vortexed for 2 min followed by ultraturrax treatment for 2 min.
Male BALB/cAnNCrl mice (n = 3 per test item and administration route) received a bolus dose of the formulated test item(s) (1 mg/kg iv, 30 mg/kg po) at t = 0 h, and whole blood samples were collected subsequently (35 µl at 0.1 (iv) / 0.25 (po), 0.5, 1, 2, 4, 6 h; 600 µl at sacrifice after 24 h). Animals were euthanized by exsanguination in deep isoflurane anesthesia. Whole blood samples were immediately stored on ice at about 4 °C. Plasma was separated by centrifugation at approximately 10,000 × g for 5 m at +4 °C. Centrifugation of each blood sample was started within 10 m after collection. A single aliquot of at least 15 µL of plasma was prepared and immediately stored at −20 ± 5 °C.
Sample proteins were precipitated with ACN (1 + 12, v/v) containing internal standard, and supernatants analyzed by quantitative UPLC-MS/MS: Phenomenex Luna Omega C18, 2.1 × 50 mm, 1.6 µm, 40 °C, gradient between 10% - 90% ACN with 0.1% formic acid. LogD determination: Lipophilicity of the test items, expressed as chromLogD7.5, was assessed by measuring their chromatographic retention times on C18-material. The chromatographic retention versus logD7.5 values of a series of thirteen n-alkan-2-ones (2-butanone – 2-hexadecanone) served as lipophilicity calibration.

Mycobacterium abscessus = test: microbe, parasite or virus in culture; type: cell-based
Mtb H37Rv = test: Minimum bactericidal concentration (MBC), Mtb H37Rv; type: cell-based, Mycobacterium tuberculosis
Mtb (moxR) FNDR-M1 = test: microbe, parasite or virus in culture; type: cell-based
Pseudomonas aeruginosa = test: MIC ESKAPES panel, Pseudomonas aeruginosa; type: cell-based
Procedure: (§1) Minimum inhibitory concentration (MIC) against ESKAPES panel of Gram positive and Gram negative pathogens (Enterococcus faecium, Staphylococcus aureus, Klebsiella pneumoniae, Acinetobacter baumannii, Pseudomonas aeruginosa, Enterobacter cloacae and Salmonella typhimurium [ESKAPES panel]) were determined at the FNDR by the standard broth dilution method [CLSI, M100]. […] Mueller Hinton broth (MHB) medium was used to grow ESKAPES panel strains. The individual cultures were added as 200 μL (inoculum of 3–7 × 10^5 cfu/ml) to the respective assay plates in each well to all columns, except the media control (200 μL of medium). […] The assay plates were incubated at 37 °C, and the results were noted on the 2nd day as turbidometric readout. The clear wells indicated inhibition of growth, while the turbid wells indicated uninhibited growth.

Mtb ATCC 35825 = test: microbe, parasite or virus in culture; type: cell-based
Acinetobacter baumannii = test: MIC ESKAPES panel, Acinetobacter baumannii; type: cell-based
Procedure: as §1

Klebsiella pneumoniae = test: MIC ESKAPES panel, Klebsiella pneumoniae; type: cell-based
Procedure: as §1

[3] = Msm, mean of the measurements, read-out: DC50, Mean
[4] = oral gavage 30 mg/kg, mice, Mean
[5] = oral gavage, individual animals 1-3
[6] = Experiment 2, three replicate columns
[7] = Experiment 2, three replicate columns, read-out: MIC (µM) Mycobacterium abscessus
[8] = Mycobacteroides abscessus, Experiment 1, read-out: MIC Mycobacterium abscessus
[9] = Mycobacteroides abscessus, Experiment 2, three replicate columns, read-out: MIC (µM) Mycobacterium abscessus
[10] = Mycobacteroides abscessus, Experiment 2, three replicate columns, read-out: MIC (µg/ml) Mycobacterium abscessus
[11] = Mycobacteroides abscessus, mean ± SD, read-out: MIC Mycobacterium abscessus
[12] = Mycobacterium tuberculosis, H37RV; individual example; read-out: MBC Mtb H37Rv
[13] = M. tuberculosis FNDR-M1, single well replicates
[14] = Mycobacterium tuberculosis, M. tuberculosis FNDR-M1, single well replicates
[15] = Mycobacterium tuberculosis, Mtb (moxR) FNDR-M1, mean ± SD, n = 3 well replicates
[16] = Gram-Negative Bacteria, replicates 1-3
[17] = Pseudomonas aeruginosa, Gram negative, n = 3 well replicates
[18] = Pseudomonas aeruginosa, Gram-Negative Bacteria, replicates 1-3
[19] = Mycobacterium tuberculosis, ATCC35825, mean, n = 2 well replicates
[20] = Mycobacterium tuberculosis, ATCC35825, single well replicates
[21] = Gram negative, n = 3 well replicates, read-out: MIC Acinetobacter baumanii
[22] = Gram-Negative Bacteria, replicates 1-3, read-out: MIC Acinetobacter baumannii
[23] = Klebsiella pneumoniae, Gram negative, n = 3 well replicates
[24] = Klebsiella pneumoniae, Gram-Negative Bacteria, replicates 1-3

| Structure (SMILES) | DC50 [1, 3] [µM] | Microsomal Stability Human QH [2] [%] | Microsomal Stability Human [2] [%Qh] | MIC (µg/ml) Mycobacterium abscessus (Mycobacterium abscessus; [6]) [µg/mL] | MIC (Mycobacterium abscessus; [7]) [µM] | MIC (Mycobacterium abscessus; [8]) | MIC (Mycobacterium abscessus; [9]) [µM] | MIC (Mycobacterium abscessus; [10]) [µg/mL] | MIC (Mycobacterium abscessus; [11]) [µM] | MBC (Mtb H37Rv; [12]) | MIC (Mtb (moxR) FNDR-M1; [13]) [µM] | MIC (Mtb (moxR) FNDR-M1; [14]) [µM] | MIC (Mtb (moxR) FNDR-M1; [15]) [µM] | MIC (Pseudomonas aeruginosa; [17]) [µM] | MIC (Pseudomonas aeruginosa; [18]) | MIC (Mtb ATCC 35825; [19]) | MIC (Mtb ATCC 35825; [20]) | MIC (Mtb ATCC 35825; single well replicates) [µM] | MIC Mtb ATCC 35825 (Mtb ATCC 35825; single well replicates) [µg/mL] | MIC (Acinetobacter baumannii; [21]) [µM] | further results |
| --- | --- | --- | --- | --- | --- | --- | --- | --- | --- | --- | --- | --- | --- | --- | --- | --- | --- | --- | --- | --- | --- |
| CO[C@H](c1ccccc1)[C@@H]1NC(=O)[C@H](C)NC(=O)[C@H](C[C@@H](C)CO)N(C)C(=O)[C@H](Cc2cn(Cc3cn(CCOCCn4cc(Cn5cc(C[C@@H]6NC(=O)[C@H](C(C)C)NC(=O)[C@H](CC(C)C)N(C)C(=O)[C@H](C(C)C)NC(=O)[C@H]([C@H](OC)c7ccccc7)NC(=O)[C@H](C)NC(=O)[C@H](C[C@@H](C)CO)N(C)C6=O)c6ccccc65)nn4)nn3)c3ccccc23)NC(=O)[C@H](C(C)C)NC(=O)[C@H](CC(C)C)N(C)C(=O)[C@H](C(C)C)NC1=O [Compound 6] | 7.5 | 69.600 | 70 | – | – | – | – | – | – | – | – | – | – | – | – | – | – | – | – | – | 1-Dmax, single measurements ([1]; Msm, Measurement 1-6): 73.6% and 67.7% and 87.3%; 1-Dmax (percent substrate remaining at maximal degradation) ([1]; Msm, Measurement 1-6, read-out: 1-Dmax, single measurements): 83.7%; 1-Dmax (percent substrate remaining at maximal degradation) ([1]; Msm, mean of the measurements, read-out: 1-Dmax, Mean): 78%; Plasma concentration 0.5 h (in vivo; [4]): BLOQ; Plasma concentration 1 h (in vivo; [4]): BLOQ; Plasma concentration 2 h (in vivo; [4]): BLOQ; Plasma concentration 4 h (in vivo; [4]): BLOQ; Plasma concentration 6 h (in vivo; [4]): BLOQ; Plasma concentration 24 h (in vivo; [4]): BLOQ; Plasma concentration […] (in vivo; [4]): BLOQ; Plasma concentration 0.5 h (in vivo; [5]): BLOQ; Plasma concentration 1 h (in vivo; [5]): BLOQ; Plasma concentration 2 h (in vivo; [5]): BLOQ; Plasma concentration 4 h (in vivo; [5]): BLOQ; Plasma concentration 6 h (in vivo; [5]): BLOQ; Plasma concentration 24 h (in vivo; [5]): BLOQ; Plasma concentration […] (in vivo; [5]): BLOQ |
| C#CC[C@@H]1NC(=O)[C@H](CC(C)C)N(C)C(=O)[C@H](C(C)C)NC(=O)[C@H]([C@H](OC)c2ccccc2)NC(=O)[C@H](C)NC(=O)[C@H](C[C@@H](C)CO)N(C)C(=O)[C@H](Cc2cn(C)c3ccccc23)NC1=O [Compound 10] (cyclo(A[Phe(βR-OMe)]V[NMeL][Pra][Trp(1-Me)][NMeLeu(5-OH,4R)])) | > 100 | >88.400 | > 88 | 11.41 (≈ 12.5 µM) | 12.5 | 12.5 µM and 11.4 µg/mL | 12.5 | 11.4 | 12.5 | 12.5 µM and 11.4 µg/mL | 1.56 (≈ 1.42 µg/mL) | 1.56 (≈ 1.42 µg/mL) | 1.6 (≈ 1.46 µg/mL) | > 50 | > 45.6 µg/mL | 0.4 µM and 0.4 µg/mL | 0.36 µg/mL and 0.39 µM | 0.39 (≈ 0.356 µg/mL) | 0.36 (≈ 0.394 µM) | > 50 | % Response ([1]; 0.4 µM): 107.165% and 105.713% and 105.534% and 109.793% and 112.635% and 106.598% and 107.262% and 106.323% and 113.228%; % Response ([1]; 33.3 µM): 86.4131% and 86.1435% and 98.0091% and 93.8962% and 86.1584% and 100.044% and 99.6955% and 103.875% and 103.346%; % Response ([1]; 100.0 µM): 86.569% and 107.836% and 89.4261% and 92.9238% and 99.5573% and 96.5131% and 88.7968% and 92.196% and 104.007%; DC50 ([1]; Msm, Measurement 1-6, read-out: DC50, single measurements): > 100 µM; degradation of the His6-tagged ClpC1-NTD substrate ([1]; cell-free, result in words): did not cause any degradation; MBC (Mtb H37Rv; Mycobacterium tuberculosis, H37RV, read-out: MBC (from Set 3) Mtb H37Rv): 12.5 µM and 11.4 µg/mL; MIC (Pseudomonas aeruginosa; [16]): >50 µM; MIC (Acinetobacter baumannii; [22]): > 50 µM and > 45.6 µg/mL; MIC (Klebsiella pneumoniae; [16]): >50 µM; MIC (Klebsiella pneumoniae; [23]): > 50 µM; MIC (Klebsiella pneumoniae; [24]): > 45.6 µg/mL |
| COc1c(N2C[C@@H]3CCCN[C@@H]3C2)c(F)cc2c(=O)c(C(=O)O)cn(C3CC3)c12 [Moxifloxacin, reference compound] | – | – | – | 1 (≈ 2.49 µM) | 2.49 | 2.49 µM and 1 µg/mL | 2.49 | 1 | 2.5 | 0.3 µM and 0.1 µg/mL | 19.93 (≈ 8 µg/mL) | 19.9 (≈ 8 µg/mL) | 19.9 (≈ 7.99 µg/mL) | 2.5 | 2.49 µM and 1 µg/mL | 0.1 µM and 0.1 µg/mL | 0.06 µg/mL and 0.15 µM | 0.15 (≈ 0.0602 µg/mL) | 0.06 (≈ 0.149 µM) | 0.3 (≈ 0.12 µg/mL) | MBC (Mtb H37Rv; Mycobacterium tuberculosis, H37RV; read-out: MBC (from Set 3) Mtb H37Rv): 0.13 µg/mL and 0.31 µM; MIC (Acinetobacter baumannii; [22]): 0.31 µM and 0.125 µg/mL; MIC (Klebsiella pneumoniae; [23]): 1.3 µM; MIC (Klebsiella pneumoniae; [24]): 1.25 µM and 0.5 µg/mL |
